The values that follow come from PMC7018972, “Novel and selective inactivators of Triosephosphate isomerase with anti-trematode activity” (Scientific Reports, 2020).

Each structure is given as a SMILES string. Where two headings read alike, the source gives them in different places. Some results are limits rather than exact numbers.

Assay [1] deals with F. hepatica infected mice. The experiment in a line: Mouse infection with F. hepatica. It counts as in vivo, BALB/c mice. To be noted: for protection of mice from F. hepatica infection (clinical signs, Clinic Score): one dose 100 mg/kg orogastric, 1 week post-infection, read at 3 wpi; for transaminase profile at the end of the experiment: one dose 100 mg/kg, infected mice. On the procedure:
Six- to eight-week-old female BALB/c mice were obtained from DILAVE Laboratories[57] (Uruguay). Animals were kept in the animal house (URBE, Facultad de Medicina, UdelaR, Uruguay) with water and food supplied ad libitum. Mouse handling and experiments were carried out in accordance with strict guidelines from the National Committee on Animal Research (CNEA, Uruguay). All procedures involving animals were approved by the Universidad de la República’s Committee on Animal Research (CHEA Protocol Number: 070153-000180-16). BALB/c mice were orally infected with 10 F. hepatica metacercariae per animal. After 1 week post-infection (wpi), mice were intragastrically inoculated with compound 187 (100 mg/kg) or TCZ (100 mg/kg). At 3 wpi mice were bled and sacrificed. Peritoneal exudate cells, spleens, and livers were removed and analyzed. In order to evaluate the severity of the infection, a disease severity score was developed (Table 3S Supporting Information)[57], which was applied in blinded experiments. Alanine aminotransferase (ALT) activity in sera was determined using a commercial kit (Spinreact, Spain) according to the manufacturers’ instructions. PECs from infected and non-infected mice were washed twice with PBS containing 2% FBS and 0.1% sodium azide.

The target of assay [2] is Fasciola hepatica TIM (FhTIM) (Fasciola hepatica, UniProt S4UI50). The assay is described as follows: Inhibition of recombinant FhTIM, coupled enzyme assay. It is filed as biochemical. In a few lines:
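E. coli-expressed FhTIM preincubated with compound 1 h at 37 °C in 100 mM triethanolamine, 10 mM EDTA, pH 7.4, 10% DMSO. Aliquot diluted into coupled assay (1 mM glyceraldehyde-3-phosphate, 0.2 mM NADH, α-glycerol phosphate dehydrogenase, pH 7.4) with NADH decrease at 340 nm, 38 °C. Triplicate, two independent experiments.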

The target in assay [3] is FhTIM (Fasciola hepatica, UniProt S4UI50). The experiment in a line: Microscale thermophoresis (MST) binding to FhTIM. On the procedure:
MST experiments were performed according to the NanoTemper technologies protocol in a Monolith NT.115 (red/blue) instrument (NanoTemper Technologies, München, Germany[36]). With this technique, the diffusion behavior of a labeled protein is measured when an infrared light excites the movement of the protein in capillaries. This behavior is the combination of two effects: the fast, local environment-dependent responses of the fluorophore to the temperature jump and the slower diffusive thermophoresis fluorescence changes. It will be modified when the protein is complexed with increasing amounts of unlabeled partners, leading to titration curves that can be fit for Kd estimation. In practice, FhTIM was labeled with the Monolith His-Tag Labeling Kit RED-tris-NTA (NanoTemper Technologies, München, Germany), as described by the manufacturer. The experiments were performed using 20% and 40% MST power and between 20–80% LED power at 24 °C. The MST traces were recorded using the standard parameters: 5 s MST power off, 30 s MST power on, and 5 s MST power off. The compounds were used at high concentrations (around 5 mM) in the bindings check assay with DMSO at 5% v/v. If the binding check was positive, then the affinity determination was performed with the same experimental settings, with serial 2x dilutions of the compound of interest.

For assay [4], the system named is Echinococcus granulosus protoscolex. Also noted: method as in PMID 22536349. The settings on record: 48 h, fixed dose of 20 µM; cited from earlier work.
For assay [5], the target named is T1, rabbit TIM (Oryctolagus cuniculus, UniProt P00939).
T1 construct: made in house; host or cells: Escherichia coli
T1 sequence (P00939 whole entry): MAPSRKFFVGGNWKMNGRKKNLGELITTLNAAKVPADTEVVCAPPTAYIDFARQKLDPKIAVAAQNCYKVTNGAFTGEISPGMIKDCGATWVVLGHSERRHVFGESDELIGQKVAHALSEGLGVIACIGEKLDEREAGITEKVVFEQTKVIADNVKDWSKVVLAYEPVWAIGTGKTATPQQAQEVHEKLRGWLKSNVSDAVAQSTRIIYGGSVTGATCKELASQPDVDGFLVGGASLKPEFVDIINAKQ
The experiment in a line: Selectivity assay, inhibition of rabbit TIM. It is filed as biochemical. The settings on record: read-out: inhibition against rabbit TIM. Here is the method:
Expression and purification of proteins: FhTIM, RabbitTIM and HsTIM were expressed in Escherichia coli and purified as described in the literature[31],[37]. After purification, the enzyme, dissolved in 100 mM triethanolamine, 10 mM EDTA and 1 mM dithiothreitol (pH 8), was precipitated with ammonium sulfate (75% saturation) and stored at 4 °C. Before use, extensive dialysis against 100 mM triethanolamine/10 mM EDTA (pH 7.4) was performed. Protein concentration was determined by absorbance at 280 nm for FhTIM (ε = 33,460 M^−1cm^−1) and for RabbitTIM and HsTIM (ε = 33,460 M^−1cm^−1). Enzymatic activity was determined following the conversion of glyceraldehydes-3-phosphate into dihydroxyacetone phosphate in a coupled enzyme assay. The decrease in absorbance at 340 nm was followed in a multiplate reader VarioskanTM Flash Multimode Reader (Thermo ScientificTM, Waltham, MA, USA) at 38 °C. The reaction mixture (1 mL, pH 7.4) contained 100 mM triethanolamine, 10 mM EDTA, 0.2 mM NADH, 1 mM glyceraldehydes-3-phosphate and 0.9 units of α-glycerol phosphate dehydrogenase. The reaction was initiated by the addition of 5 ng/mL of the TIM of interest. For the inhibition studies, TIM was incubated at a concentration of 5 mg/mL in a buffer containing 100 mM triethanolamine, 10 mM EDTA, pH 7.4 and 10% of DMSO at 37 °C for 1 h. The mixture also contained the compounds, dissolved in DMSO, at the indicated concentrations. After 1 h, 10 µL were withdrawn and added to a final volume of 100 µL of the reaction mixture for the activity assay. The inhibition assay was performed in a 96-well microplate. None of the molecules tested here affected the activity of α-glycerol phosphate dehydrogenase, the enzyme used in the coupled assay. The IC50 value was taken as the concentration of drug needed to reduce the enzymatic activity to 50% by analysis using OriginLab8.5® sigmoidal regression (% of enzymatic activity vs. the logarithm of the compound concentration). The experiments were performed in triplicate in two independent experiments.

Setting [6] is: Figure 1, ranges of inhibitory activity, read-out: IC50 range.
[7] abbreviates: recombinant FhTIM, 1 h incubation with compound at 37 °C, read-out: IC50.

Sequence of FhTIM (S4UI50 entry or part of it): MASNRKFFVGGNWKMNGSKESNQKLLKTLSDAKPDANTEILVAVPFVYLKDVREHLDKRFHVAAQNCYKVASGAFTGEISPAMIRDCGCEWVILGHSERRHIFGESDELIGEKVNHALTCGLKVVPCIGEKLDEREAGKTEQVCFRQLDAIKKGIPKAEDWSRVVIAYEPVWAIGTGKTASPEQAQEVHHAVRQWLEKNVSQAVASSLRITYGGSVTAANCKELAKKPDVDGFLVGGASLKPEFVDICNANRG
Sequence of Fasciola hepatica TIM (FhTIM) (S4UI50 entry or part of it): as above

Take `Cc1ccc(-c2nsc(S(=O)(=O)c3ccc(C)cc3)n2)cc1` [Compound 187]: the “protection of mice from F. hepatica infection (clinical signs, Clinic Score)” value in assay [1] was “protected mice from the infection”. In addition, the “transaminase profile at the end of the experiment” value in assay [1] was “according to a healthy liver”. Also, the IC50 in assay [2] (setting [6]) is less than 50 µM; in assay [2] (Table 1S, screening of 340 compounds in FhTIM, table head prints no unit, µM per b8/b9, read-out: IC50), less than 25 µM; in assay [2] (setting [7]), 4 ± 0.2 µM. Further, the Kd in assay [3] (24 °C) is 0.07 ± 0.01 µM; in assay [3] (abstract) it was 0.066 µM. Moreover, the “effect on Echinococcus granulosus protoscolex in words” value in assay [4] is on record as “showed effect”. Further, in assay [5], the inhibition at 100 µM was less than 20%.

`CSc1nc2cc(Cl)c(Oc3cccc(Cl)c3Cl)cc2[nH]1` [Compound 1278, triclabendazole, reference compound]: in assay [1], the “protection of mice from F. hepatica infection (clinical signs, Clinic Score)” value was “protected mice from the infection” and the “transaminase profile at the end of the experiment” value is reported as “according to a healthy liver”. Further, the IC50 in assay [2] (setting [6]) was less than 50 µM. Besides, the IC50 in assay [2] (setting [7]) stood at 7 ± 1 µM. Further, the Kd in assay [3] (24 °C) was 1000 µM. The inhibition at 100 µM in assay [5] was less than 20%.
